Data from patent US12358918B2, “Aryl hydrocarbon receptor (AHR) activator compounds as cancer therapeutics” (THE BROAD INSTITUTE, INC., priority 2018, dated 2025).

Tests used:
[1] = target: T1, recombinant human Adenosine A3 (FAST-004C) receptor (Homo sapiens, UniProt P0DMS8); test: cAMP HTRF assay, Adenosine A3 receptor, antagonist mode; format: cell-based
T1 sequence (P0DMS8 1-318): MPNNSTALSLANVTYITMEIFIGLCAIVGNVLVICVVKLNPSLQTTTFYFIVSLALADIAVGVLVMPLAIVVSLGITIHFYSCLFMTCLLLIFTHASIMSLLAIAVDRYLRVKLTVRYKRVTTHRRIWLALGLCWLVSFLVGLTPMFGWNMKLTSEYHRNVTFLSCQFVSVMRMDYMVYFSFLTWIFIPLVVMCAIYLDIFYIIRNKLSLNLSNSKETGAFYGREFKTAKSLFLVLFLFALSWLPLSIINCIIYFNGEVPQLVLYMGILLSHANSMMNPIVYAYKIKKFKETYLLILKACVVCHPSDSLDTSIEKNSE

[2] = system: MDA-MB-231 breast cancer cell lines; test: cytotoxicity, control cells vs cells overexpressing CYP1A1; format: cell-based
Description: The dependence of each compound's cytotoxic effects upon CYP1A1 was also examined, via screening of MDA-MB-231 breast cancer cell lines for cytotoxic response. The CYP1A1-dependence of the cytotoxic response of to each tested compound was specifically determined by comparing the cytotoxicity of each compound administered to control cells with that of the compound administered to corresponding cells that overexpressed CYP1A1. […]

[3] = system: Twelve different breast cancer cell lines; test: adenosine receptor antagonists and agonists dosed on twelve breast cancer cell lines; format: cell-based; settings: 32 adenosine receptor antagonists/agonists compared; FIG. 6B
[4] = system: ZR-75-1 and MDA-MB-468 cells harboring an AGR2 knockout; settings: CRISPR-Cas9 AGR2 knockout; FIGS. 10A-10D
[5] = system: MDA-MB-468 and ZR-75-1 cell lines; settings: AHR sg3 / AHR sg4 knockout vs GFP sg1 or parental Cas9; FIGS. 13A and 13B
[6] = target: T2, recombinant human Adenosine A1 (FAST-001C) receptor (Homo sapiens, UniProt P30542); test: cAMP HTRF assay, Adenosine A1 receptor, antagonist mode; parameters: inhibition: dose or concentration left out as unconfirmed
T2 sequence (P30542 1-326): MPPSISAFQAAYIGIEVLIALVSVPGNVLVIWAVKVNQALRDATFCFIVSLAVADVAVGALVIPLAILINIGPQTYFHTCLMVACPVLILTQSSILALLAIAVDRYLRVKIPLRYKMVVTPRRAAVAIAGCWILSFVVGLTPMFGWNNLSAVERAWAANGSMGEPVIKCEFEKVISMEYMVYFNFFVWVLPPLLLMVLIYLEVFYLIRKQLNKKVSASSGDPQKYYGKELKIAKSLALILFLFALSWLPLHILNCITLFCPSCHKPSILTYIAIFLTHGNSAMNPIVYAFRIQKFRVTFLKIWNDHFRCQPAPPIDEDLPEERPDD

[7] = target: T3, recombinant human Adenosine A2B (FAST-003C) receptor (Homo sapiens, UniProt P29275); test: cAMP HTRF assay, Adenosine A2B receptor, antagonist mode; parameters: inhibition: dose or concentration left out as unconfirmed
T3 sequence (P29275 1-332): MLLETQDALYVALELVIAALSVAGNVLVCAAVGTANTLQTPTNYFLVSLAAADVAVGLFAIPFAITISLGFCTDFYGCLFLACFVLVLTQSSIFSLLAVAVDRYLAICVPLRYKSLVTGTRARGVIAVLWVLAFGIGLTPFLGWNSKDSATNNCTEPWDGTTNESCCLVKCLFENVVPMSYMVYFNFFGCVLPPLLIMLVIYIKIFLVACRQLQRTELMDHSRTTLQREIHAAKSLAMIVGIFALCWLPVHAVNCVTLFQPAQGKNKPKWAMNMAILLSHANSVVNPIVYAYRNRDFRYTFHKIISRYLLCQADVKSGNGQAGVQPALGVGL

[8] = CHO-K1, read-out: % Inhibition Average at maximal concentration
[9] = antagonist mode dose-response fit

Q: `Nc1nc2ccc(Cl)cc2c2nc(-c3ccco3)nn12` [CGS-15943, reference compound] was tested. Which inhibition at 10 µM [1, 8] did it give?
A: The inhibition at 10 µM was 68.9%.

Q: What about the “Hill Coefficient” value [1, 9] of the same compound?
A: Its value is 1.66.

Q: What about the IC50 ([1]; antagonist mode, CHO-K1, reference agonist IB-MECA) of the same compound?
A: Its IC50 is 2090 nM.

Q: And the “CYP1A1-dependence of the cytotoxic response” value [2]?
A: Its value is “CYP1A1-dependent cytotoxic”.

Q: And the “cytotoxicity to breast cancer cell lines” value [3]?
A: The value was “cytotoxic”.

Q: What about the “rescue of cytotoxicity by AGR2 knockout” value [4] of the same compound?
A: Its value is “not rescued by AGR2 knockout”.

Q: And the “dependence of cytotoxic activity on AHR” value [5]?
A: The value was “required intact AHR expression”.

Q: What about the inhibition [6, 8] of the same compound?
A: The inhibition was 106%.

Q: What about the “Hill Coefficient” value [6, 9] of the same compound?
A: The value was 0.92.

Q: And the inhibition ([7]; HEK293, read-out: % Inhibition Average at maximal concentration)?
A: Its inhibition is 120%.

Q: What about the “Hill Coefficient” value [7, 9] of the same compound?
A: The value was 1.75.
